Values of other authors, collected in publication PMC13112601 (International journal of biological macromolecules, 2026).

Legend:
ERRγ = target: T1, ERRγ (Homo sapiens, UniProt P62508); settings: previously reported
T1 construct: Full-length ERRα (A) and ERRγ (B) transfection assay results in HEK293 cells; host or cells: HEK293
T1 sequence (P62508 1-458): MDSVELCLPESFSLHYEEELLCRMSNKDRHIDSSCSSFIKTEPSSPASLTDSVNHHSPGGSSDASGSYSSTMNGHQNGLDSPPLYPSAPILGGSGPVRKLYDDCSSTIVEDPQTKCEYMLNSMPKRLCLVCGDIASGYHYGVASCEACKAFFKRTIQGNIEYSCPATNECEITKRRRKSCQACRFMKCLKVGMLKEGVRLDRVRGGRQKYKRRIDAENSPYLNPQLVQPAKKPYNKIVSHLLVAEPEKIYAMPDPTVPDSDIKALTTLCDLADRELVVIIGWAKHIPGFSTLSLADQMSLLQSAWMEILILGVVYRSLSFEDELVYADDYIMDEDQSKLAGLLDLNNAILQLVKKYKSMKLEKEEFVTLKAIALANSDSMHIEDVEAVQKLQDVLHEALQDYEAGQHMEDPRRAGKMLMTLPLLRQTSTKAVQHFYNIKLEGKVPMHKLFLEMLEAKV

ERRα = target: T2, ERRα (Homo sapiens, UniProt P11474); settings: previously reported
T2 construct: Full-length ERRα (A) and ERRγ (B) transfection assay results in HEK293 cells; host or cells: HEK293
T2 sequence (P11474 1-423): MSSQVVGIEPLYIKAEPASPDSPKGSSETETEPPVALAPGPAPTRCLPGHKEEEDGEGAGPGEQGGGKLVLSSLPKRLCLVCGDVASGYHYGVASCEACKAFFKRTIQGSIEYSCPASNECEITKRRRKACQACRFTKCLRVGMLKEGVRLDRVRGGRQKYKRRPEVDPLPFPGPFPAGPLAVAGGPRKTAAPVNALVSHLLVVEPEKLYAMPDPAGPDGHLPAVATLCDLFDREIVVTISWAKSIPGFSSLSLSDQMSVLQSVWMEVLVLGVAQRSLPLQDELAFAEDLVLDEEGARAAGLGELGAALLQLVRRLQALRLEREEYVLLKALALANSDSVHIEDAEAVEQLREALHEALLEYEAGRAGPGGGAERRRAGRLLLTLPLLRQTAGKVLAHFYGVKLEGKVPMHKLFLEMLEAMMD

- EC50 (ERRγ): 194 nM
- EC50 (ERRα): 209 nM
SMILES: Cc1ccc(C(=O)N/N=C/c2ccccc2)cc1 [BE5082, (E)-N′-Benzylidene-4-methylbenzohydrazide]
